The values below come from article PMC10113987, “A tool for nuclear imaging of the SARS-CoV-2 entry receptor: molecular model and preclinical development of ACE2-selective radiopeptides” (EJNMMI Research, 2023).

Details of series [1]: method as in doi:10.1016/0020-1693(94)04012-5. The conditions noted are these: cited from earlier work.
A short description of series [2]: In vitro stability in mouse blood plasma (TLC). The conditions noted are these: 37 °C. It counts as in vitro ADME. As for the experimental part:
(§1) The ^67Ga-labeled DX600-radiopeptides (20 MBq/nmol) were incubated in human and mouse plasma (10 MBq/200 µL), respectively, at 37 °C. Aliquots were taken at variable time points up to 24 h for analysis using reversed phase thin layer chromatography (TLC) with citrate buffer (0.1 M, pH 5.5) as a mobile phase. Images of the TLC plates were obtained using a storage phosphor system (Cyclone Plus, PerkinElmer) and quantified using the OptiQuant software (version 5.0, Bright Instrument Co Ltd., PerkinElmer™) (Supplementary Information).
(§2) The radiopeptides were prepared and TLC experiments were performed immediately after radiolabeling by applying the diluted radiopeptides in saline (1 µL; ~0.05 MBq) and [^67Ga]GaCl3 solution (1 µL; ~0.05 MBq) on the TLC plates. The radiopeptides were incubated in mouse or human plasma (10 MBq/200 µL) at 37° C. TLC was performed with an aliquot of the plasma samples at the given timepoints (30 min, 1 h, 3 h and 24 h). The TLC plates were exposed to a phosphor screen followed by development using a storage phosphor system (Cyclone Plus, PerkinElmer). The quantification of the signals was carried out using the OptiQuant software (version 5.0, Bright Instrument Co Ltd., PerkinElmer^TM). The obtained chromatograms were analyzed by determination of the peak area of the radiolabeled peptide, the released gallium-67 as well as degradation products of unknown structure. The quantity of the intact product was expressed as percentage of the sum of integrated peak areas of the entire chromatogram.

Series [3] is described as follows: In vitro stability in human blood plasma (TLC). It counts as in vitro ADME. The conditions noted are these: 37 °C, whole incubation period of 24 h. As for the experimental part: as §1, §2
Series [4] has as its system HEK-ACE2/HEK-ACE-xenografted mice. As to the kind of experiment: Biodistribution in HEK-ACE2/HEK-ACE xenografted mice. It counts as in vivo, mouse. As for the experimental part: (§3) All applicable international, national, and/or institutional guidelines for the care and use of animals were followed. In particular, all animal experiments were carried out according to the guidelines of the Swiss Regulations for Animal Welfare. Preclinical studies have been ethically approved by the Cantonal Committee of Animal Experimentation and permitted by the responsible cantonal authorities (License N° 75743). Five-week-old female CD1/nude mice and female immunocompetent FVB mice were obtained from Charles River Laboratories (Sulzfeld, Germany) and fed with standard rodent chow ad libitum. CD1/nude were subcutaneously inoculated with HEK-ACE2 cells (6–8 × 10^6 cells in 100 µL PBS) on the right shoulder and approximately one week later with HEK-ACE (4 × 10^6 cells in 100 µL PBS) on the left shoulder. Imaging and biodistribution studies were performed 2–4 weeks later when the xenografts reached a size of 100–300 mm^3.
Biodistribution studies in xenograft-bearing mice were performed 2–4 weeks after cell inoculation. Mice were intravenously injected with [^67Ga]Ga-DOTA-DX600, [^67Ga]Ga-NODAGA-DX600, [^67Ga]Ga-HBED-CC-DX600 or [^67Ga]Ga-DOTA-BPP9a (3 MBq, 0.5 nmol, 100 µL) diluted in NaCl 0.9% containing 0.05% BSA. The mice were sacrificed 3 h after administration of the radiopeptides. Selected tissues and organs were collected, weighed and counted using a γ-counter. The results were listed as a percentage of the injected activity per gram of tissue mass (% IA/g), using counts of a defined volume of the original injection solution measured simultaneously, resulting in decay-corrected values. Statistical analysis was performed by applying a one‐way ANOVA test with a Tukey’s multiple comparisons post‐test (GraphPad Prism software, version 8.3.1).

Series [5] has the same test system. Kind of series: SPECT/CT imaging and quantification of retained activity in HEK-ACE2/HEK-ACE xenografted mice. It counts as in vivo, mouse. The conditions noted are these: SPECT/CT quantification, non-decay-corrected. As for the experimental part:
as §3
SPECT/CT imaging was performed using a four-head, multiplexing, multipinhole small-animal SPECT camera (NanoSPECT/CT™, Mediso Medical Imaging Systems, Budapest, Hungary). Each head was outfitted with a tungsten-based aperture of nine 1.4 mm-diameter pinholes and a thickness of 10 mm. CT scans of 7.5 min duration were followed by SPECT scans of ~ 50 min performed 1 h, 3 h and 24 h after injection of the respective radiopeptide (10 MBq, 0.5 nmol, 100 μL), diluted in NaCl 0.9% containing 0.05% BSA. During the scan, mice were anesthetized with a mixture of isoflurane and oxygen. The images were acquired using Nucline software (version 1.02, Mediso Ltd., Budapest, Hungary). The real-time CT reconstruction used a cone-beam-filtered backprojection. The reconstruction of SPECT data was performed with the HiSPECT software (version 1.4.3049, Scivis GmbH, Göttingen, Germany) using γ-energies of 93.20 keV (± 10%), 184.60 keV (± 10%) and 300.00 keV (± 10%) for gallium-67. All images were prepared using the VivoQuant post-processing software (version 3.0, inviCRO Imaging Services and Software, Boston, US). A Gauss post-reconstruction filter (full width at half maximum, 1 mm) was applied, and the scale of activity for gallium-67 was set as indicated on the SPECT/CT images. In order to estimate the wash-out of the DX600-based radiopeptides from the HEK-ACE2 xenografts and kidneys over time, the absolute amount of activity was determined in these tissues using the VivoQuant quantification tool. The accumulated activity (non-decay-corrected value in MBq) in the xenografts and kidneys, respectively, obtained at the 1 h p.i. timepoint was set as 100%. The percentage of activity retained in these tissues was determined at 3 h and 24 h p.i. based on the absolute activity determined at these timepoints.

Series [6] has as its system FVB mice. As to the kind of experiment: In vivo stability in immunocompetent FVB mice (TLC of blood plasma, urine, kidneys). Further details: species or system mouse. The conditions noted are these: 1 h p.i., fraction of accumulated activity. As for the experimental part: In order to investigate the stability of the radiopeptides, the ^67Ga-labeled DX600 peptides (20 MBq/nmol) were tested in immunocompetent FVB mice (10 MBq in 100 μL per mouse). Before sacrificing, blood was collected from each mouse 1 h after injection of the radiopeptides. After centrifugation, the blood plasma was analyzed using reversed phase TLC with citrate buffer (0.1 M, pH 5.5) as a mobile phase. The kidneys were collected and processed to investigate the presence of intact radiopeptides and potential metabolites using the same TLC system. The analysis of the chromatograms was performed as described for the in vitro plasma stability (Additional file 1).
Methods: Immunocompetent FVB mice were injected with the DX600-based radiopeptides (n=2). One hour later, urine was collected and blood was sampled from the retrobulbar vein followed by centrifugation (10 min, 200 rcf). A drop of urine and blood plasma was analyzed using the TLC method described for in vitro stability experiments above (reversed phase as stationary phase and citrate buffer pH 5.5 as mobile phase). The data were also confirmed using normal phase TLC. Kidneys of mice were collected, cut into small pieces, homogenized in 200 μL buffer solution (ice-cold methanol containing 0.025% NH4OH) and centrifuged (5 min, 2300 rcf, 4° C) as described by Boss et al.. An aliquot of the supernatant of each sample was developed using the same TLC method as for urine and blood plasma samples. The TLC plates were exposed to a phosphor screen which was afterwards read using a storage phosphor system (Cyclone Plus, PerkinElmer). The quantification of the signals was carried out using the OptiQuant software (version 5.0, Bright Instrument Co Ltd., PerkinElmer^TM). The obtained chromatograms were analyzed by determination of the peak area of the radiolabeled peptide, the released gallium-67 as well as degradation products of unknown structure. The quantity of the intact product was expressed as percentage of the sum of integrated peak areas of the entire chromatogram.

Setting [7] is: 3 h after i.v. injection, decay-corrected, n = 3.

Like-named read-outs stand apart in the source and are kept apart here. Positions of bridges follow the written chain, without caps; N, C: chain ends. Residues, ends and D or L forms follow the SMILES beside them. *: point of attachment. HBEDCC = O=C(O)CCc1ccc(O)c(CN(CCN(CC(=O)O)Cc2cc(CCC(=O)*)ccc2O)CC(=O)O)c1 A value given as a limit tells only on which side of the number the result lay.

For `O=C(O)CCc1ccc(O)c(CN(CCN(CC(=O)O)Cc2cc(CCC(=O)O)ccc2O)CC(=O)O)c1` [HBED-CC, 3-(3-((2-((5-(2-carboxyethyl)-2-hydroxyphenyl)methyl-(carboxymethyl)amino)ethyl-(carboxymethyl)amino)methyl)-4-hydroxyphenyl)propanoic acid], the values for the logK of coordination in series [1] (Ga^3+) and in series [1] (Zn^2+) were 38 and 18, respectively.

As to `CC(=O)N[C@@H](CCCCNC(=O)CCc1ccc(O)c(CN(CCN(CC(=O)O)Cc2cc(CCC(=O)O)ccc2O)CC(=O)O)c1)C(=O)NCC(=O)N[C@@H](CC(=O)O)C(=O)N[C@@H](Cc1ccc(O)cc1)C(=O)N[C@@H](CO)C(=O)N[C@@H](Cc1c[nH]cn1)C(=O)N[C@H]1CSSC[C@@H](C(=O)N[C@H](C(=O)N[C@@H](Cc2ccc(O)cc2)C(=O)N2CCC[C@H]2C(=O)N[C@@H](CC(=O)O)C(=O)N2CCC[C@H]2C(=O)N[C@@H](CCC(=O)O)C(=O)NCC(=O)NCC(=O)NCC(N)=O)[C@@H](C)O)NC(=O)[C@H](CCCCN)NC(=O)[C@H](Cc2c[nH]c3ccccc23)NC(=O)[C@H](Cc2c[nH]c3ccccc23)NC(=O)[C@@H]2CCCN2C(=O)[C@H](Cc2ccc(O)cc2)NC(=O)[C@H](Cc2ccc(O)cc2)NC(=O)[C@H](CCCNC(=N)N)NC(=O)[C@H](CC(C)C)NC(=O)[C@@H]2CCCN2C(=O)[C@H](CO)NC1=O` [[^67Ga]Ga-HBED-CC-DX600, metal not drawn] (Ac-K(HBEDCC)GDYSHCSPLRYYPWWKCTYPDPEGGG-NH2; disulfide 7-18), the “Intact radiopeptide in mouse blood plasma” value in series [2] (3 h) is 87 ± 2%. In series [2] (24 h), the “Intact radiopeptide in mouse blood plasma” value is recorded as 29 ± 1%. Besides, the “Intact radiopeptide in human blood plasma” value in series [3] is above 99%. Besides, in series [4] (setting [7]), the “Biodistribution: ACE2 xenograft (HEK-ACE2)” value worked out at 12.3 ± 1.3 % IA/g, the “Biodistribution: ACE xenograft (HEK-ACE)” value is reported as below 0.5 % IA/g, the “Biodistribution: blood” value is on record as 0.09 ± 0.04 % IA/g and the “Biodistribution: bone” value is recorded as 0.05 ± 0.02 % IA/g. Also, in series [4] (setting [7]), the “Biodistribution: heart” value was determined as 0.07 ± 0.03 % IA/g, the “Biodistribution: intestines” value came out at 0.43 ± 0.31 % IA/g, the “Biodistribution: kidneys (renal retention)” value is listed as 7.2 ± 2.2 % IA/g and the “Biodistribution: liver” value amounted to 0.23 ± 0.16 % IA/g. Besides, in series [4] (setting [7]), the “Biodistribution: lung” value was 0.13 ± 0.05 % IA/g, the “Biodistribution: muscle” value was determined as 0.03 ± 0.02 % IA/g, the “Biodistribution: salivary glands” value is on record as 0.05 ± 0.02 % IA/g and the “Biodistribution: spleen” value amounted to 0.06 ± 0.03 % IA/g. The “Biodistribution: stomach” value in series [4] (setting [7]) amounted to 0.09 ± 0.03 % IA/g. Moreover, the “Biodistribution: ACE xenograft (HEK-ACE)” value in series [4] (3 h after i.v. injection, decay-corrected, n = 3, listed as [^67Ga]Ga-HBED-CC- DX600) stood at 0.27 ± 0.33 % IA/g. Moreover, the HEK-ACE2 xenograft-to-kidney ratio in series [4] (3 h after injection) is recorded as 1.77 ± 0.34. In addition, in series [5] (3 h p.i.), the “Activity retained in the kidneys relative to the 1 h p.i.-timepoint” value was determined as 30%. Moreover, the “Activity retained in the kidneys relative to the 1 h p.i.-timepoint” value in series [5] (24 h p.i.) is below 1%. In series [6], the “Intact radiopeptide in kidney homogenates” value is given as above 92% and the “Radiometabolites in kidney homogenates” value is given as ~ 7.5%.
